Read-outs that look alike come from different tables or passages of the source.
Assays:
[1] = system: Escherichia coli K-12 MG1655; assay: Growth of K-12 MG1655 in varying concentrations of fumaric, itaconic, malic and succinic acid, Growth Profiler; type: cell-based
Description: (§1) Five colonies from wild-type K-12 MG1655 and 10 individual colonies deriving from each population were inoculated into 300 μL M9+1% glucose in 96 well deepwell plates and incubated in a 300 rpm plate shaker at 37° C. The next day, cells were diluted 10× in M9+1% glucose and 30 μL was transferred into clear-bottomed 96 well half-deepwell plates (with rectangular wells) containing M9+1% glucose and M9+1% glucose+52.78 g/L glutaric acid or 55.56 g/L adipic acid, such that the final concentration of glutaric acid or adipic acid was 47.5 g/L or 50 g/L, respectively. In addition, cryogenic glycerol stocks of the overnight culture were saved in a 96 well plate format. Half deepwell plates were incubated at 37° C. with 225 rpm shaking in a Growth Profiler (Enzyscreen), with optical scans of the plates taken at 15 minute intervals. Green pixel values integrated over a 1 mm diameter circular area in each well were converted to OD600 values using a previously determined calibration between OD600 and green pixel values.
(§2) Additionally, each evolved isolate was tested for cross-tolerance toward other dicarboxylic acids of interest. […] All diacids tested were either the neutral sodium salts, or the free diacid was neutralized with sodium hydroxide to pH 7.0 for testing.

[2] = system: Escherichia coli K-12 MG1655 and evolved isolates; type: cell-based; details: 45 g/L itaconic acid
Description: as §1, §2

Structure (SMILES): C=C(CC(=O)O)C(=O)O [itaconic acid]
- μ (mean) ([1]; growth rate of K-12 MG1655, 10 g/L diacid (sodium salt)): 0.703 h^1
- μ (mean) ([1]; growth rate of K-12 MG1655, 20 g/L diacid (sodium salt)): 0.603 h^1
- μ (mean) ([1]; growth rate of K-12 MG1655, 30 g/L diacid (sodium salt)): 0.520 h^1
- μ (mean) ([1]; growth rate of K-12 MG1655, 40 g/L diacid (sodium salt)): 0.320 h^1
- μ (mean) ([1]; growth rate of K-12 MG1655, 50 g/L diacid (sodium salt)): 0.117 h^1
- tlag (mean) ([1]; lag time of K-12 MG1655, 10 g/L diacid (sodium salt)): 5.8 h
- tlag (mean) ([1]; lag time of K-12 MG1655, 20 g/L diacid (sodium salt)): 7.0 h
- tlag (mean) ([1]; lag time of K-12 MG1655, 30 g/L diacid (sodium salt)): 9.4 h
- tlag (mean) ([1]; lag time of K-12 MG1655, 40 g/L diacid (sodium salt)): 14.1 h
- tlag (mean) ([1]; lag time of K-12 MG1655, 50 g/L diacid (sodium salt)): 29.9 h
- growth rate μ (mean) ([2]; strain ADIP1-1): 0.466 h⁻¹
- lag time tlag (mean) ([2]; strain ADIP1-1): 8.3 h
- growth rate μ (mean) ([2]; strain ADIP1-9): 0.434 h⁻¹
- lag time tlag (mean) ([2]; strain ADIP1-9): 8.7 h
- growth rate μ (mean) ([2]; strain ADIP2-5): 0.440 h⁻¹
- lag time tlag (mean) ([2]; strain ADIP2-5): 8.3 h
- growth rate μ (mean) ([2]; strain ADIP2-6): 0.470 h⁻¹
- lag time tlag (mean) ([2]; strain ADIP2-6): 8.2 h
- growth rate μ (mean) ([2]; strain ADIP2-10): 0.438 h⁻¹
- lag time tlag (mean) ([2]; strain ADIP2-10): 8.3 h
- growth rate μ (mean) ([2]; strain ADIP3-2): 0.459 h⁻¹
- lag time tlag (mean) ([2]; strain ADIP3-2): 7.9 h
- growth rate μ (mean) ([2]; strain ADIP3-4): 0.451 h⁻¹
- lag time tlag (mean) ([2]; strain ADIP3-4): 8.4 h
- growth rate μ (mean) ([2]; strain ADIP3-8): 0.433 h⁻¹
- lag time tlag (mean) ([2]; strain ADIP3-8): 8.5 h
- growth rate μ (mean) ([2]; strain ADIP4-1): 0.339 h⁻¹
- lag time tlag (mean) ([2]; strain ADIP4-1): 11.2 h
- growth rate μ (mean) ([2]; strain ADIP4-8): 0.326 h⁻¹
- lag time tlag (mean) ([2]; strain ADIP4-8): 10.4 h
- growth rate μ (mean) ([2]; strain ADIP5-2): 0.354 h⁻¹
- lag time tlag (mean) ([2]; strain ADIP5-2): 9.4 h
- growth rate μ (mean) ([2]; strain ADIP5-6): 0.527 h⁻¹
- lag time tlag (mean) ([2]; strain ADIP5-6): 7.2 h
- growth rate μ (mean) ([2]; strain ADIP6-3): 0.327 h⁻¹
- lag time tlag (mean) ([2]; strain ADIP6-3): 9.9 h
- growth rate μ (mean) ([2]; strain ADIP6-9): 0.337 h⁻¹
- lag time tlag (mean) ([2]; strain ADIP6-9): 10.3 h
- growth rate μ (mean) ([2]; strain ADIP6-10): 0.343 h⁻¹
- lag time tlag (mean) ([2]; strain ADIP6-10): 9.1 h
- growth rate μ (mean) ([2]; strain ADIP7-2): 0.342 h⁻¹
- lag time tlag (mean) ([2]; strain ADIP7-2): 7.9 h
- growth rate μ (mean) ([2]; strain ADIP7-5): 0.402 h⁻¹
- lag time tlag (mean) ([2]; strain ADIP7-5): 8.6 h
- growth rate μ (mean) ([2]; strain ADIP8-3): 0.308 h⁻¹
- lag time tlag (mean) ([2]; strain ADIP8-3): 11.7 h
- growth rate μ (mean) ([2]; strain ADIP8-7): 0.235 h⁻¹
- lag time tlag (mean) ([2]; strain ADIP8-7): 12.5 h
- growth rate μ (mean) ([2]; strain ADIP8-10): 0.290 h⁻¹
- lag time tlag (mean) ([2]; strain ADIP8-10): 11.3 h
- growth rate μ (mean) ([2]; strain GLUT1-3): 0.454 h⁻¹
- lag time tlag (mean) ([2]; strain GLUT1-3): 10.2 h
- growth rate μ (mean) ([2]; strain GLUT1-9): 0.446 h⁻¹
- lag time tlag (mean) ([2]; strain GLUT1-9): 10.4 h
- growth rate μ (mean) ([2]; strain GLUT1-10): 0.446 h⁻¹
- lag time tlag (mean) ([2]; strain GLUT1-10): 18.1 h
- growth rate μ (mean) ([2]; strain GLUT2-1): 0.385 h⁻¹
- lag time tlag (mean) ([2]; strain GLUT2-1): 10.8 h
- growth rate μ (mean) ([2]; strain GLUT2-9): 0.415 h⁻¹
- lag time tlag (mean) ([2]; strain GLUT2-9): 9.0 h
- growth rate μ (mean) ([2]; strain GLUT2-10): 0.494 h⁻¹
- lag time tlag (mean) ([2]; strain GLUT2-10): 8.8 h
- growth rate μ (mean) ([2]; strain GLUT3-5): 0.310 h⁻¹
- lag time tlag (mean) ([2]; strain GLUT3-5): 12.0 h
- growth rate μ (mean) ([2]; strain GLUT3-7): 0.326 h⁻¹
- lag time tlag (mean) ([2]; strain GLUT3-7): 11.7 h
- growth rate μ (mean) ([2]; strain GLUT3-9): 0.257 h⁻¹
- lag time tlag (mean) ([2]; strain GLUT3-9): 14.5 h
- growth rate μ (mean) ([2]; strain GLUT4-1): 0.414 h⁻¹
- lag time tlag (mean) ([2]; strain GLUT4-1): 11.7 h
- growth rate μ (mean) ([2]; strain GLUT4-4): 0.339 h⁻¹
- lag time tlag (mean) ([2]; strain GLUT4-4): 13.4 h
- growth rate μ (mean) ([2]; strain GLUT4-10): 0.328 h⁻¹
- lag time tlag (mean) ([2]; strain GLUT4-10): 13.5 h
- growth rate μ (mean) ([2]; strain GLUT5-4): 0.398 h⁻¹
- lag time tlag (mean) ([2]; strain GLUT5-4): 15.2 h
- growth rate μ (mean) ([2]; strain GLUT5-5): 0.368 h⁻¹
- lag time tlag (mean) ([2]; strain GLUT5-5): 11.4 h
- growth rate μ (mean) ([2]; strain GLUT5-9): 0.438 h⁻¹
- lag time tlag (mean) ([2]; strain GLUT5-9): 22.5 h
- growth rate μ (mean) ([2]; strain GLUT6-4): 0.360 h⁻¹
- lag time tlag (mean) ([2]; strain GLUT6-4): 11.3 h
- growth rate μ (mean) ([2]; strain GLUT6-5): 0.420 h⁻¹
- lag time tlag (mean) ([2]; strain GLUT6-5): 10.6 h
- growth rate μ (mean) ([2]; strain GLUT6-10): 0.502 h⁻¹
- lag time tlag (mean) ([2]; strain GLUT6-10): 10.5 h
- growth rate μ (mean) ([2]; strain GLUT7-2): 0.441 h⁻¹
- lag time tlag (mean) ([2]; strain GLUT7-2): 10.6 h
- growth rate μ (mean) ([2]; strain GLUT7-6): 0.293 h⁻¹
- lag time tlag (mean) ([2]; strain GLUT7-6): 13.7 h
- growth rate μ (mean) ([2]; strain GLUT7-7): 0.239 h⁻¹
- lag time tlag (mean) ([2]; strain GLUT7-7): 8.5 h
- growth rate μ (mean) ([2]; strain GLUT8-5): 0.372 h⁻¹
- lag time tlag (mean) ([2]; strain GLUT8-5): 17.3 h
- growth rate μ (mean) ([2]; strain GLUT8-6): 0.236 h⁻¹
- lag time tlag (mean) ([2]; strain GLUT8-6): 10.3 h
- growth rate μ (mean) ([2]; strain GLUT8-9): 0.224 h⁻¹
- lag time tlag (mean) ([2]; strain GLUT8-9): 12.0 h
- growth rate μ (mean) ([2]; strain MG1655 (Table 26)): 0.248 h⁻¹
- lag time tlag (mean) ([2]; strain MG1655 (Table 26)): 13.4 h
- growth rate μ (mean) ([2]; strain MG1655 (Table 27)): 0.257 h⁻¹
- lag time tlag (mean) ([2]; strain MG1655 (Table 27)): 13.0 h

Source: patent US20230139445A1, “BACTERIAL CELLS WITH IMPROVED TOLERANCE TO DIACIDS” (priority 2016, published 2023)
